Reference: patent US8030303B2, “Salt of morpholine compound” (Mitsubishi Tanabe Pharma Corporation, priority 2006, dated 2011)

Key:
[1] = Vapor sorption measurement (index of hygroscopicity), DVS-1 apparatus; assay type: physicochemical; settings: relative humidity 70%, change calculated based on weight at relative humidity 0%, sample about 7 mg
Experimental: A vapor sorption measurement to provide an index of hygroscopicity was performed using a DVS-1 vapor sorption apparatus (manufactured by SMS) under the following conditions. A sample of about 7 mg was used and the relative humidity was increased by 10% within the range of from 0% to 90%, and finally to 95%. The weight change was recorded at each predetermined relative humidity, and the amount of change (%) was calculated based on the weight at relative humidity 0%. As the samples, compound 1-2 (hereinafter to be referred to as a free form) obtained according to the method described in WO 2006/028284, Example 2, compound 1-3 (hereinafter to be referred to as hydrobromide Form I crystal) obtained according to the method described in Example 1 and compound 2 (hereinafter to be referred to as hydrobromide Form II crystal) obtained according to the method described in Example 2 were used.

CCR3 = biological target: T1, CCR3 (Homo sapiens, UniProt P51677); settings: known from WO2006/028284, Table 1 of Experimental Example 1; cited from earlier work
T1 sequence (P51677 1-355): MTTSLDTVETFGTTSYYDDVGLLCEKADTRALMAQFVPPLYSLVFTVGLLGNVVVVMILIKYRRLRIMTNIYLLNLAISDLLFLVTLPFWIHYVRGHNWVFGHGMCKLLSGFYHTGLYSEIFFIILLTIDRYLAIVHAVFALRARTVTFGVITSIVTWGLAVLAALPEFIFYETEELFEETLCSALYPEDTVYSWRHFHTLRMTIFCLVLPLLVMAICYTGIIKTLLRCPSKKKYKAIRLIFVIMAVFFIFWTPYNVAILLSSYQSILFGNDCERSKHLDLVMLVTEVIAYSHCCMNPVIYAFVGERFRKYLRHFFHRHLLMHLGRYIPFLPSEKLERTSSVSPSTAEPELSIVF

| weight change (gain) due to vapor sorption [1] | weight change (gain) due to vapor sorption ([1]; hydrobromide) | SMILES | CCR3 antagonism / inhibition of CCR3-ligand binding (CCR3) |
| --- | --- | --- | --- |
| 3.3% | – | Br.O=C(O)Cc1csc(SCC(=O)NC[C@H]2CN(Cc3ccc(Cl)c(Cl)c3)CCO2)n1 [free form, (2S)-[4-(carboxymethyl)thiazol-2-ylthio]-N-{[4-(3,4-dichlorobenzyl)morpholin-2-yl]methyl}acetamide] | inhibit the bond between CCR3 and a ligand thereof, and act as an antagonist |
| – | 0.1% | Br.O=C(O)Cc1csc(SCC(=O)NC[C@H]2CN(Cc3ccc(Cl)c(Cl)c3)CCO2)n1 [hydrobromide Form I crystal, (2S)-[4-(carboxymethyl)thiazol-2-ylthio]-N-{[4-(3,4-dichlorobenzyl)morpholin-2-yl]methyl}acetamide hydrobromide] | – |
| – | 1.4% | Br.O=C(O)Cc1csc(SCC(=O)NC[C@H]2CN(Cc3ccc(Cl)c(Cl)c3)CCO2)n1 [hydrobromide Form II crystal, (2S)-[4-(carboxymethyl)thiazol-2-ylthio]-N-{[4-(3,4-dichlorobenzyl)morpholin-2-yl]methyl}acetamide hydrobromide] | – |
